According to patent publication US20170362243A1, “BIARYLETHER IMIDAZOPYRAZINE BTK INHIBITORS” (MERCK SHARP & DOHME CORP., priority 2014, published 2017):

Biological target: T1, BTK enzyme (recombinant full-length BTK, hBTK) (Homo sapiens, UniProt Q06187)
T1 construct: recombinant protein from baculovirus-transfected Sf9 cells: full-length BTK, 6HIS-tag cleaved; 6HIS (cleaved yes); made in house; host or cells: baculovirus-transfected Sf9 cells
Experiment: Btk enzyme activity assay, LANCE TR-FRET
Assay type: biochemical
Settings: 50 pM hBTK, 2 μM biotin-A5-peptide, 25 μM ATP, 60 minute compound & enzyme incubation, read-out: BTK binding IC50
Method: BTK enzymatic activity was determined with the LANCE (Lanthanide Chelate Excite) TR-FRET (Time-resolved fluorescence resonance energy transfer) assay. In this assay, the potency (IC50) of each compound was determined from an eleven point (1:3 serial dilution; final compound concentration range in assay from 1 μM to 0.017 nM) titration curve using the following outlined procedure. To each well of a black non-binding surface Corning 384-well microplate (Corning Catalog #3820), 5 nL of compound (2000 fold dilution in final assay volume of 10 μL) was dispensed, followed by the addition of 7.5 μL of 1× kinase buffer (50 mM Hepes 7.5, 10 mM MgCl2, 0.01% Brij-35, 1 mM EGTA, 0.05% BSA & 1 mM DTT) containing 5.09 pg/μL (66.67 pM) of BTK enzyme (recombinant protein from baculovirus-transfected Sf9 cells: full-length BTK, 6HIS-tag cleaved). Following a 60 minute compound & enzyme incubation, each reaction was initiated by the addition of 2.5 μL 1× kinase buffer containing 8 μM biotinylated “A5” peptide (Biotin-EQEDEPEGDYFEWLE-NH2) (SEQ.ID.NO.: 1), and 100 μM ATP. The final reaction in each well of 10 μL consists of 50 pM hBTK, 2 μM biotin-A5-peptide, and 25 μM ATP. Phosphorylation reactions were allowed to proceed for 120 minutes. Reactions were immediately quenched by the addition of 20 uL of 1× quench buffer (15 mM EDTA, 25 mM Hepes 7.3, and 0.1% Triton X-100) containing detection reagents (0.626 nM of LANCE-Eu-W1024-anti-phosphoTyrosine antibody, PerkinElmer and 86.8 nM of Streptavidin-conjugated Dylight 650, Dyomics/ThermoFisher Scientific). After 60 minutes incubation with detection reagents, reaction plates were read on a PerkinElmer EnVision plate reader using standard TR-FRET protocol. Briefly, excitation of donor molecules (Eu-chelate:anti-phospho-antibody) with a laser light source at 337 nm produces energy that can be transferred to Dylight-650 acceptor molecules if this donor:acceptor pair is within close proximity. Fluorescence intensity at both 665 nm (acceptor) and 615 nm (donor) are measured and a TR-FRET ratio calculated for each well (acceptor intensity/donor intensity). IC50 values were determined by 4 parameter robust fit of TR-FRET ratio values vs. (Log10) compound concentrations.
The following Table 3 provides specific IC50 values for all the examples. The IC50 values set forth below were determined according to Assay method described above.

T1 sequence (Q06187 whole entry): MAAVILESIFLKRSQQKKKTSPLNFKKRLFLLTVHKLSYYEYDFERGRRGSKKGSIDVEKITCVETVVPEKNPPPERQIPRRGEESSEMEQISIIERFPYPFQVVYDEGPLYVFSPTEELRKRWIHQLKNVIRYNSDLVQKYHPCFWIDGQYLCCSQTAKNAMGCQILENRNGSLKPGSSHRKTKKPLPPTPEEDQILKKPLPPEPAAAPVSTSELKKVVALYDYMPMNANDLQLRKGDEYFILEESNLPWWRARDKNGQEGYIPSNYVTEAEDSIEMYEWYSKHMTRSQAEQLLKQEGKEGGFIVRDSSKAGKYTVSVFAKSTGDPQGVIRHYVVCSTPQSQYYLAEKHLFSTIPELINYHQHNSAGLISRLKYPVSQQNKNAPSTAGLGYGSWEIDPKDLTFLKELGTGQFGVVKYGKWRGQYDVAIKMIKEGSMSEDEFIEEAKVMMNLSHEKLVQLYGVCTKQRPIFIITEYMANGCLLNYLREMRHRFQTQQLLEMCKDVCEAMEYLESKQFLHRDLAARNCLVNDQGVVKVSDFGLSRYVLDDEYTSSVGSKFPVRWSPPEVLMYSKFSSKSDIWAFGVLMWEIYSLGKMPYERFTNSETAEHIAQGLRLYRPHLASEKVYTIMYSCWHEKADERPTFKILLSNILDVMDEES

Row | SMILES | IC50
1 | Nc1nccn2c(C3CCC(C(=O)O)O3)nc(-c3ccc(Oc4ccccc4)cc3)c12 (single isomer, unassigned) [Example 26, 5-[8-amino-1-(4-phenoxyphenyl)imidazo[1,5-a]pyrazin-3-yl]tetrahydrofuran-2-carboxylic acid (E1)] | 12.5 nM
2 | CC(C)[C@@]1(C(=O)O)CCC(c2nc(-c3ccc(Oc4cccc(F)c4)cc3)c3c(N)nccn23)C1 (stereo in doubt) [Example 4, (1R,3S)-3-{8-amino-1-[4-(3-fluorophenoxy)phenyl]imidazo[1,5-a]pyrazin-3-yl}-1-(1-methylethyl)cyclo-pentanecarboxylic acid] | 4.4 nM
3 | CC(C)C1(C(=O)O)CC[C@H](c2nc(-c3ccc(Oc4cccc(F)c4)cc3)c3c(N)nccn23)C1 (stereo in doubt) [Example 5, (1R,3S)-3-{8-amino-1-[4-(3-fluorophenoxy)phenyl]imidazo[1,5-a]pyrazin-3-yl}-1-(1-methylethyl)cyclo-pentanecarboxylic acid] | 1.4 nM
4 | Nc1nccn2c(N3CCC[C@H](C(=O)O)C3)nc(-c3ccc(Oc4ccccc4)cc3)c12 [Example 1, (S)-1-(8-amino-1-(4-phenoxyphenyl)imidazo[1,5-a]pyrazin-3-yl)piperidine-3-carboxylic acid] | 2.7 nM
5 | CC(C)[C@]1(C(=O)O)CC[C@@H](c2nc(-c3ccc(Oc4cccc(F)c4)cc3)c3c(N)nccn23)C1 [Example 2, (1S,3R)-3-{8-amino-1-[4-(3-fluorophenoxy)phenyl]imidazo[1,5-a]pyrazin-3-yl}-1-(1-methylethyl)cyclo-pentanecarboxylic acid] | 2 nM
6 | CC(C)[C@@]1(C(=O)O)CC[C@H](c2nc(-c3ccc(Oc4cccc(F)c4)cc3)c3c(N)nccn23)C1 [Example 3, (1R,3S)-3-{8-amino-1-[4-(3-fluorophenoxy)phenyl]imidazo[1,5-a]pyrazin-3-yl}-1-(1-methylethyl)cyclo-pentanecarboxylic acid] | 19.5 nM
7 | Nc1nccn2c(C34CCC(C(=O)O)(CC3)CC4)nc(-c3ccc(Oc4ccccc4)cc3)c12 [Example 6, 4-[8-amino-1-(4-phenoxyphenyl)imidazo[1,5-a]pyrazin-3-yl]bicyclo[2.2.2]octane-1-carboxylic acid] | 0.09 nM
8 | Nc1nccn2c1c(-c1ccc(Oc3cccc(F)c3)cc1)nc2[C@H]1CC[C@@H](C(=O)O)CC1 [Example 11, cis-4-{8-amino-1-[4-(3-fluorophenoxy)phenyl]imidazo[1,5-a]pyrazin-3-yl}cyclohexanecarboxylic acid] | 14.3 nM
9 | Nc1nccn2c1c(-c1ccc(Oc3cccc(F)c3)cc1)nc2[C@H]1CC[C@H](C(=O)O)CC1 [Example 12, trans-4-{8-amino-1-[4-(3-fluorophenoxy)phenyl]imidazo[1,5-a]pyrazin-3-yl}cyclohexanecarboxylic acid] | 1 nM
10 | Nc1nccn2c(C34CCCC(C(=O)O)(CC3)CC4)nc(-c3ccc(Oc4ccccc4)cc3)c12 [Example 21, 5-[8-amino-1-(4-phenoxyphenyl)imidazo[1,5-a]pyrazin-3-yl]bicyclo[3.2.2] nonane-1-carboxylic acid] | 0.14 nM
11 | Nc1nccn2c(C34C=CC(C(=O)O)(CC3)CC4)nc(-c3ccc(Oc4ccccc4)cc3)c12 [Example 22, 4-[8-amino-1-(4-phenoxyphenyl)imidazo[1,5-a]pyrazin-3-yl]bicyclo[2.2.2]oct-2-ene-1-carboxylic acid] | 0.26 nM

The remaining lines, values ahead:

Row | IC50 | SMILES
12 | 0.18 nM | Nc1nccn2c([C@@H]3CCC[C@@H](C(=O)O)C3)nc(-c3ccc(Oc4ccccc4)cc3)c12 (relative stereo) [Example 30, Trans-3-(8-amino-1-(4-phenoxyphenyl)imidazo[1,5-a]pyrazin-3-yl)cyclohexanecarboxylic acid]
13 | 12.5 nM | Nc1nccn2c(C3CCC(C(=O)O)O3)nc(-c3ccc(Oc4ccccc4)cc3)c12 (single isomer, unassigned) [Example 27, 5-[8-amino-1-(4-phenoxyphenyl)imidazo[1,5-a]pyrazin-3-yl]tetrahydrofuran-2-carboxylic acid (E2)]
14 | 0.23 nM | CC1(C(=O)O)CCC(C)(c2nc(-c3ccc(Oc4ccccc4)cc3)c3c(N)nccn23)C1 (single isomer, unassigned) [Example 28, 3-[8-amino-1-(4-phenoxyphenyl)imidazo[1,5-a]pyrazin-3-yl]-1,3-dimethylcyclo-pentanecarboxylic acid (E1)]
15 | 1.3 nM | CC1(C(=O)O)CCC(C)(c2nc(-c3ccc(Oc4ccccc4)cc3)c3c(N)nccn23)C1 (single isomer, unassigned) [Example 29, 3-[8-amino-1-(4-phenoxyphenyl)imidazo[1,5-a]pyrazin-3-yl]-1,3-dimethylcyclo-pentanecarboxylic acid (E2)]
16 | 2.1 nM | CC(C)(C(=O)O)C1CCC(c2nc(-c3ccc(Oc4ccccc4)cc3)c3c(N)nccn23)C1 (stereo not drawn) [Example 7, 2-{3-[8-amino-1-(4-phenoxyphenyl)imidazo[1,5-a]pyrazin-3-yl]cyclopentyl}-2-methylpropanoic acid]
17 | 0.7 nM | CC1(C)[C@@H](c2nc(-c3ccc(Oc4ccccc4)cc3)c3c(N)nccn23)CC[C@@]1(C)C(=O)O [Example 8, (1R,3S)-3-[8-amino-1-(4-phenoxyphenyl)imidazo [1,5-a]pyrazin-3-yl]-1,2,2-trimethylcyclopenta-carboxylic acid]
18 | 7.1 nM | Nc1nccn2c([C@@H]3CCC[C@H](C(=O)O)C3)nc(-c3ccc(Oc4ccccc4)cc3)c12 [Example 9, (1S,3R)-3-[8-amino-1-(4-phenoxyphenyl)imidazo[1,5-a]pyrazin-3-yl]cyclohexanecarboxylic acid]
19 | 1.6 nM | CC1(C(=O)O)CCCC(c2nc(-c3ccc(Oc4ccccc4)cc3)c3c(N)nccn23)C1 (stereo not drawn) [Example 10, 3-[8-amino-1-(4-phenoxyphenyl)imidazo [1,5-a]pyrazin-3-yl]-1-mehtylcyclohexane-carboxylic acid]
20 | 5.9 nM | C[C@]1(C(=O)O)CCC[C@@H](c2nc(-c3ccc(Oc4cccc(F)c4)cc3)c3c(N)nccn23)C1 [Example 13, (1S,3R)-3-{8-amino-1-[4-(3-fluorophenoxy)phenyl]imidazo[1,5-a]pyrazin-3-yl}-1-methylcyclohexanecarboxylic acid]
21 | 2.4 nM | C[C@]1(C(=O)O)CCC[C@@H](c2nc(-c3ccc(Oc4ccccc4)cc3)c3c(N)nccn23)C1 [Example 14, (1S,3R)-3-[8-amino-1-(4-phenoxyphenyl)imidazo [1,5-a]pyrazin-3-yl]-1-methylcyclohexane-carboxylic acid]
22 | 1.3 nM | C[C@@]1(C(=O)O)CCC[C@H](c2nc(-c3ccc(Oc4ccccc4)cc3)c3c(N)nccn23)C1 [Example 15, (1R,3S)-3-[8-amino-1-(4-phenoxyphenyl)imidazo [1,5-a]pyrazin-3-yl]-1-methylcyclohexane-carboxylic acid]
23 | 3.3 nM | C[C@@]1(C(=O)O)CCC[C@H](c2nc(-c3ccc(Oc4cccc(F)c4)cc3)c3c(N)nccn23)C1 [Example 16, (1R,3S)-3-{8-amino-1-[4-(3-fluorophenoxy)phenyl]imidazo[1,5-a]pyrazin-3-yl}-1-methylcyclohexane-carboxylic acid]
24 | 0.5 nM | Nc1nccn2c1c(-c1ccc(Oc3ccccc3)cc1)nc2[C@H]1CC[C@H](C(=O)O)CC1 [Example 17, trans-4-[8-amino-1-(4-phenoxyphenyl)imidazo [1,5-a]pyrazin-3-yl]cyclohexane-carboxylic acid]
25 | 3.5 nM | CC1(C)[C@@H](C(=O)O)C[C@H]1c1nc(-c2ccc(Oc3ccccc3)cc2)c2c(N)nccn12 [Example 18, (1 S,3R)-3-(8-amino-1-(4-phenoxyphenyl)imidazo[1,5-a]pyrazin-3-1)-2,2-dimethylcyclobutanecarboxylic acid]
26 | 200 nM | CCC[C@]1(C(=O)O)CCC[C@@H](c2nc(-c3ccc(Oc4ccccc4)cc3)c3c(N)nccn23)C1 [Example 19, (1S,3R)-3-[8-amino-1-(4-pheenoxyphenyl)imidazo[1,5-a]pyrazin-3-yl]-1-propylcyclohexane-carboxylic acid]
27 | 4.9 nM | CCC[C@@]1(C(=O)O)CCC[C@@H](c2nc(-c3ccc(Oc4ccccc4)cc3)c3c(N)nccn23)C1 [Example 20, (1R,3R)-3-[8-amino-1-(4-phenoxyphenyl)imidazo[1,5-a]pyrazin-3-yl]-1-propylcyclohexane-carboxylic acid]
